Columns and labels:
[1] = tested on: mTOR/p70S6K signaling pathway; experiment: Western blot analysis of mTOR/p70S6K signaling pathway in Jurkat T cells; type: cell-based, human; settings: 10 ng/ml IL2, 100 nM, 24 hours, FIG. 20A
Protocol: To examine the biological activities of these compounds, western blot analysis of mTOR/p70S6K signaling pathway and T-cell proliferation assay were performed with human Jurkat T cells. T-cell viability and proliferation were assessed using alamarBlue® cell viability reagent (Invitrogen).
For the western blot analysis of mTOR/p70S6K signaling pathway, briefly, Jurkat T cell were seeded into 6-cm cell culture dish in RPM11640 medium containing 10% fetal bovine serum.
Insoluble material was collected by centrifugation at 14,000×g for 20 minutes at 4° C. The cell lysate samples were separated on 10% SDS-PAGE gels and transferred to a PVDF membrane (Millipore). The membrane blots were blocked in PBS containing 5% BSA for 1 hour at room temperature, and incubated with primary antibodies, anti-phospho-p70S6K antibody (Cell Signaling Technology, Danvers, USA) and anti-p70S6K antibody (Cell Signaling Technology), overnight at 4° C. […] Then the membranes were washed three times with TBST, and immunoreacted bands were detected with ECL™ western blotting detection reagents (Millipore) and exposed on Fujifilm (Tokyo, Japan). Relative quantification of ECL signals on X-ray films were analyzed by using Image J (NIH, Bethesda, Md., USA).

PD1-IgG1.Fc = molecular target: T1, PD1-IgG1.Fc (Homo sapiens, UniProt Q15116); experiment: ELISA of recombinant PD-L1 binding to PD1-IgG1.Fc; settings: plate coated with PD-L1 50 μg/ml; PD1-IgG1.Fc 50 μg/ml; FIG. 14D
T1 construct: made in house; host or cells: Expi293F
T1 sequence (Q15116 with tags, fused parts or gaps): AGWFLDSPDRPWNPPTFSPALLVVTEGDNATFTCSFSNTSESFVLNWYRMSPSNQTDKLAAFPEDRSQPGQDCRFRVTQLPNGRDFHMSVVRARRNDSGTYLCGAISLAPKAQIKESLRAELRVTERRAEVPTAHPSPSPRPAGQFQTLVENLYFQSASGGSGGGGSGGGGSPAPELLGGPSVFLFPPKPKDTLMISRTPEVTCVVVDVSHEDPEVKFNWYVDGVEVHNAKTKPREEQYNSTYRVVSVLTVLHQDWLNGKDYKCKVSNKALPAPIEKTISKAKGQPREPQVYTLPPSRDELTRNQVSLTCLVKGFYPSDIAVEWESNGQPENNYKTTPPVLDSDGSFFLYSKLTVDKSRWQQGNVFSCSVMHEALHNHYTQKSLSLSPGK
Protocol: Binding activity of recombinant PD-L1 protein was assayed with ELISA using a 96-well plate coated with recombinant PD-L1 protein in 50 μg/ml concentration, 100 μl per well. After the excess PD-L1 was washed off and the solid phase blocked, 100 μl per well of PD1-IgG1.Fc at 50 μg/ml was added. The bound PD1-IgG1.Fc was determined by HRP-conjugated goat anti-human IgG.Fc. 50 μl of TMB substrate was added for color development. The reaction was stopped by 50 μl of 1M HCl. Absorbance at 450 nm was measured with a plate reader. Each bar represents the mean OD450 value of duplicate samples.

scFv specific for CTLA-4 = experiment: Western blot of recombinant CTLA-4 with scFv specific for CTLA-4; type: binding; settings: scFv specific for CTLA-4 1 μg/ml; FIG. 14C
Protocol: Recombinant CTLA-4 protein was analyzed and detected using western blotting. Briefly, 50 μl of the purified CTLA-4 protein was electrophoresed on the 12% SDS-PAGE gel (lane 2) and electroblotted over to a PDVF membrane. The protein (CTLA-4)-IgG1Fc-(scFv α HLA-A1) was used as a positive control (lane 1). After blocking with 5% BSA in TBST at room temperature for 1 hour, the diluted scFv specific for CTLA-4 (1 μg/ml) was added and incubated with the membrane overnight at 4° C. with gentle shaking. The membrane was rinsed and washed 3 times with TBST. The diluted HRP-conjugated protein L (1:5000) was added and incubated with the membrane at room temperature for 1 hour, and the rinse and wash cycle was repeated with TBST for 3 times. The membrane was then incubated with HRP substrate solution for 20 minutes before being exposed to the photographic film.

human HLA-A2 = molecular target: T2, human HLA-A2 (Homo sapiens, UniProt P04439); experiment: Single colony ELISA of phage-displayed scFvs specific for human HLA-A2; type: binding; settings: HLA-A2 0.5 μg/100 μl per well; FIG. 16B
T2 construct: made in house; host or cells: Expi293F
Protocol: E. coli strain ER2738 infected with single-clonal phages each harboring a selected scFv gene in its phagemid was grown in the mid-log phase in 2YT broth (16 g/l tryptone, 10 g/l yeast extract, 5 g/l NaCl, pH 7.0) with 100 μg/ml ampicillin in deep well at 37° C. with shaking. After the broth reached an OD600 of 1.0, IPTG was added to a final concentration of 1 μg/ml. The plates were incubated at 37° C. overnight under rigorously shaking. Thereafter, the plates were centrifuged at 4,000 g for 15 minutes at 4° C.
For soluble scFv binding test, ELISA was carried out. Briefly, 96-well Maxisorp 96-well plate (Nunc) was coated with human HLA-A2 (0.5 μg/100 μl PBS per well) or two negative control antigens, human heat shock protein 70 (Hsp 70) and RSV-IgG1.Fc fusion protein (prepared by our laboratory), for 18 hours with shaking at 4° C. After being treated with 300 μl of blocking buffer for 1 hour, 100 μl of secreted scFv in the supernatant was mixed with 100 μl of blocking buffer and then added to the coated plate for another 1 hour. Goat anti-E-tag antibody (conjugated with HRP, 1:4000, Cat. No. AB19400, Abcam) was added to the plate for 1 hour. TMB substrate (50 μl per well) was added to the wells and the absorbance at 450 nm was measured after reactions were stopped by adding 1N HCl (50 μl per well).

recombinant HLA-A1 = molecular target: T3, recombinant HLA-A1 (Homo sapiens, UniProt P04439); experiment: ELISA of tetrazine-conjugated scFv specific for human HLA-A1; type: binding; settings: FIG. 17B
T3 construct: made in house; host or cells: Expi293F
Text: The purity of tetrazine-conjugated scFv specific for human HLA-A1 was identified through Coomassie blue staining of 12% SDS-PAGE. FIGS. 17A and 17B show, respectively, the mass spectrometric and ELISA analysis of tetrazine-conjugated scFv specific for human HLA-A1, in which unmodified scFv specific for human HLA-A1 was used as a positive control.

`CO[C@H]1C[C@@H]2CC[C@@H](C)[C@@](O)(O2)C(=O)C(=O)N2CCCC[C@H]2C(=O)O[C@H]([C@H](C)C[C@@H]2CC[C@@H](OC(=O)CNC(=O)CN)[C@H](OC)C2)CC(=O)[C@H](C)/C=C(\C)[C@@H](O)[C@@H](OC)C(=O)[C@H](C)C[C@H](C)/C=C/C=C/C=C/1C` [sirolimus-diGly, sirolimus di-glycine] was tested, and the “mTOR/p70S6K signally pathway in the treated T cells, compared with unmodified sirolimus” value [1] was “blocked” and the “phosphorylated level of p70S6K” value [1] was “decreased”.

“recombinant human PD-L1: recombinant human PD-L1 (SEQ ID NO: 31) with GGGGSGGGGS linker and terminal cysteine” was tested, and the “binding to recombinant PD1-IgG1.Fc (ELISA)” value (PD1-IgG1.Fc) was “specifically bound”.

For “recombinant human CTLA-4: recombinant human CTLA-4 (SEQ ID NO: 30) with GGGGSGGGGS linker and terminal cysteine”, the “binding by the scFv specific for CTLA-4 (western blot)” value (scFv specific for CTLA-4) was “specifically bound”.

`CO[C@H]1C[C@@H]2CC[C@@H](C)[C@@](O)(O2)C(=O)C(=O)N2CCCC[C@H]2C(=O)O[C@H]([C@H](C)C[C@@H]2CC[C@@H](OC(=O)CN)[C@H](OC)C2)CC(=O)[C@H](C)/C=C(\C)[C@@H](O)[C@@H](OC)C(=O)[C@H](C)C[C@H](C)/C=C/C=C/C=C/1C` [sirolimus-Gly, Sirolimus monoglycine] was tested, and the “mTOR/p70S6K signally pathway in the treated T cells, compared with unmodified sirolimus” value [1] was “blocked” and the “phosphorylated level of p70S6K” value [1] was “decreased”.

B1: 3E10: phage-displayed human scFv clone specific for human HLA-A2, SEQ ID NO: 34 (protein)
scFv: DIQMTQSPSSLSASVGDRVTITCRASQDVFFFVAWYQQKPGKAPKLLIYGPPGLYSGVPSRFSGSGSGTDFTLTISSLQPEDFATYYCQQYFSFPITFGQGTKVEIKRGGGGSIEGRSGGGGSEVQLVESGGGLVQPGGSLRLSCAASGFTISNGGIHWVRQAPGKGLEWVASIWPSGGYTSYADSVKGRFTISADTSKNTAYLQMNSLRAEDTAVYYCARFGVNYHGIMDYWGQGTLVTVSS
modifications: phage-displayed scFv specific for HLA-A2, 3E10
B1 was tested, and the “OD450 of binding to human HLA-A2” value (human HLA-A2) was 1.3.

B2: tetrazine-conjugated scFv specific for human HLA-A1: scFv specific for human HLA-A1 conjugated at C-terminal cysteine with Mal-PEG4-tetrazine (protein)
scFv: DIQMTQSPSTLSASVGDRVTITCRASQSISNWLAWYQQKPGKAPNLLIYKASSLESGVPSRFSGSGSGTEFTLTISSLQPDDFATYYCQQYHDYSVTFGAGTKVEIKRGGGGSGGGGSGGGGSEVQLLESGGGLVQPGGSQRLSCVASGVPFSNYAMNWVRQAPGKGLEWVSSISGGGDRTFYADSVKGRFTISRDNSKNTLYLQMNSLGAGDTAVYYCAKTYYDFWSGYSRHLNSWGQGSLVTVSSGGGGSGGGGSC
With B2 the “binding to recombinant HLA-A1 (ELISA)” value (recombinant HLA-A1) was “bound”.
